{"source": "patent US6372431B1", "about": "“Mammalian toxicological response markers” (Incyte Genomics, Inc., priority 1999, dated 2002)", "key": {"SEQ ID NO:5": {"tested_on": "SEQ ID NO:5", "details": "male, Sprague-Dawley, rat, in vivo, ip, 250 mg/kg", "protocol": "(§1) For each target preparation, frozen liver was homogenized and lysed in TRIZOL reagent (Life Technologies, Gaithersburg Md.) following the modifications for liver RNA isolation. Messenger RNA was isolated using an OLIGOTEX kit (QIAGEN) and labeled with either Cy3- or Cy5-labeled primers (Operon Technologies, Alameda Calif.) using the GEMBRIGHT labeling kit (Incyte Pharmaceuticals). […] Quantitative and differential expression pattern control cDNAs were added to each labeling reaction. Labeled cDNA was treated with 0.5 M sodium bicarbonate. (pH 9.2) for 20 min at 85 ° C. to degrade the RNA and purified using two successive CHROMA SPIN 30 gel filtration spin columns (Clontech, Palo Alto Calif.). Cy3-labeled control sample and Cy5-labeled experimental sample were combined and precipitated in glycogen, sodium acetate, and ethanol.\n(§2) Hybridizations were carried out using the methods described by Shalon (supra).\n(§3) The microscope used to detect the reporter-labeled hybridization complexes was equipped with an Innova 70 mixed gas 10 W laser (Coherent Lasers, Santa Clara Calif.) capable of generating spectral lines at 488 nm for excitation of Cy3, and 632 nm for excitation of Cy5. The excitation laser light was focused on the array using a 20×microscope objective (Nikon, Melville N.Y.). The slide containing the array was placed on a computer-controlled X-Y stage on the microscope and raster-scanned past the objective. The 1.8 cm×1.8 cm array used in the present example was scanned with a resolution of 20 micrometers.\n(§4) In two separate scans, a mixed gas multiline laser excited the two fluorophores sequentially. Emitted light was split, based on wavelength, into two photomultiplier tube detectors (PMT R1477, Hamamatsu Photonics, San Jose Calif.) corresponding to the two fluorophores. Appropriate filters positioned between the array and the photomultiplier tubes were used to filter the signals. The emission maxima of the fluorophores used were 565 nm for Cy3 and 650 nm for Cy5. Each array was typically scanned twice, one scan per fluorophore using the appropriate filters at the laser source, although the apparatus was capable of recording the spectra from both fluorophores simultaneously.\n(§5) When two probes from different sources (e.g., representing test and control cells), each labeled with a different fluorophore, are hybridized to a single array for the purpose of identifying genes that are differentially expressed, the calibration was done by labeling samples of the calibrating cDNA with the two fluorophores and adding identical amounts of each to the hybridization mixture.\n(§6) A grid was superimposed over the fluorescence signal image such that the signal from each spot was centered in each element of the grid. The fluorescence signal within each element was then integrated to obtain a numerical value corresponding to the average intensity of the signal. The software used for signal analysis was the GEMTOOLS gene expression analysis program (Incyte Pharmaceuticals)."}, "SEQ ID NO:2": {"tested_on": "SEQ ID NO:2", "details": "male, Sprague-Dawley, rat, in vivo, ip, 250 mg/kg", "protocol": "as §1, §2, §3, §4, §5, §6"}, "SEQ ID NO:3": {"tested_on": "SEQ ID NO:3", "details": "male, Sprague-Dawley, rat, in vivo, ip, 250 mg/kg", "protocol": "as §1, §2, §3, §4, §5, §6"}, "SEQ ID NO:8": {"tested_on": "SEQ ID NO:8", "details": "male, Sprague-Dawley, rat, in vivo, ip, 250 mg/kg", "protocol": "as §1, §2, §3, §4, §5, §6"}, "P450 3A2": {"tested_on": "P450 3A2", "test": "microarray gene expression in treated rat liver", "format": "in vivo", "details": "clofibrate-treated rat liver, 250 mg/kg bw i.p. single dose", "protocol": "as §1, §2, §3, §4, §5, §6"}, "SEQ ID NO:4": {"tested_on": "SEQ ID NO:4", "test": "microarray gene expression in treated rat liver", "format": "in vivo", "details": "CLO-treated rat liver, 250 mg/kg bw i.p. single dose", "protocol": "as §1, §2, §3, §4, §5, §6"}, "P450 4A": {"tested_on": "P450 4A", "test": "microarray gene expression in treated rat liver", "format": "in vivo", "details": "clofibrate-treated rat liver, 250 mg/kg bw i.p. single dose", "protocol": "as §1, §2, §3, §4, §5, §6"}, "P450 LA-omega 4A3": {"tested_on": "P450 LA-omega 4A3", "test": "microarray gene expression in treated rat liver", "format": "in vivo", "details": "clofibrate-treated rat liver, 250 mg/kg bw i.p. single dose", "protocol": "as §1, §2, §3, §4, §5, §6"}}, "note": "Read-outs that look alike come from different tables or passages of the source."}
{"compound": "CCOC(=O)C(C)(C)Oc1ccc(Cl)cc1", "note": "[clofibrate]", "values": [{"measurement": "Gene expression (x-fold change) of SEQ ID NO: 5", "setting": "SEQ ID NO:5; 12 h", "result": 1.7, "unit": "x-fold change"}, {"measurement": "Gene expression (x-fold change) of SEQ ID NO: 5", "setting": "SEQ ID NO:5; 24 h", "result": 2.9, "unit": "x-fold change"}, {"measurement": "Gene expression (x-fold change) of SEQ ID NO: 5", "setting": "SEQ ID NO:5; 3 days", "result": 1.6, "unit": "x-fold change"}, {"measurement": "Gene expression (x-fold change) of SEQ ID NO: 5", "setting": "SEQ ID NO:5; 7 days", "result": 1.5, "unit": "x-fold change"}, {"measurement": "Gene expression (x-fold change) of SEQ ID NO: 5", "setting": "SEQ ID NO:5; 28 days", "result": 1.2, "unit": "x-fold change"}, {"measurement": "Gene expression (x-fold change) of SEQ ID NO: 2", "setting": "SEQ ID NO:2; 12 h", "result": 2.6, "unit": "x-fold change"}, {"measurement": "Gene expression (x-fold change) of SEQ ID NO: 2", "setting": "SEQ ID NO:2; 24 h", "result": 1.4, "unit": "x-fold change"}, {"measurement": "Gene expression (x-fold change) of SEQ ID NO: 2", "setting": "SEQ ID NO:2; 3 days", "result": 0.5, "unit": "x-fold change"}, {"measurement": "Gene expression (x-fold change) of SEQ ID NO: 2", "setting": "SEQ ID NO:2; 7 days", "result": 1.1, "unit": "x-fold change"}, {"measurement": "Gene expression (x-fold change) of SEQ ID NO: 2", "setting": "SEQ ID NO:2; 28 days", "result": 1.2, "unit": "x-fold change"}, {"measurement": "Gene expression (x-fold change) of SEQ ID NO: 3", "setting": "SEQ ID NO:3; 12 h", "result": 1.3, "unit": "x-fold change"}, {"measurement": "Gene expression (x-fold change) of SEQ ID NO: 3", "setting": "SEQ ID NO:3; 24 h", "result": 2, "unit": "x-fold change"}, {"measurement": "Gene expression (x-fold change) of SEQ ID NO: 3", "setting": "SEQ ID NO:3; 3 days", "result": 1.3, "unit": "x-fold change"}, {"measurement": "Gene expression (x-fold change) of SEQ ID NO: 3", "setting": "SEQ ID NO:3; 7 days", "result": 1.5, "unit": "x-fold change"}, {"measurement": "Gene expression (x-fold change) of SEQ ID NO: 3", "setting": "SEQ ID NO:3; 28 days", "result": 1.5, "unit": "x-fold change"}, {"measurement": "Gene expression (x-fold change) of SEQ ID NO: 8", "setting": "SEQ ID NO:8; 12 h", "result": 2.6, "unit": "x-fold change"}, {"measurement": "Gene expression (x-fold change) of SEQ ID NO: 8", "setting": "SEQ ID NO:8; 24 h", "result": 1.7, "unit": "x-fold change"}, {"measurement": "Gene expression (x-fold change) of SEQ ID NO: 8", "setting": "SEQ ID NO:8; 3 days", "result": 1.3, "unit": "x-fold change"}, {"measurement": "Gene expression (x-fold change) of SEQ ID NO: 8", "setting": "SEQ ID NO:8; 7 days", "result": 1.3, "unit": "x-fold change"}, {"measurement": "Gene expression (x-fold change) of SEQ ID NO: 8", "setting": "SEQ ID NO:8; 28 days", "result": 1.4, "unit": "x-fold change"}, {"measurement": "Gene expression (x-fold change) of P450 3A2", "setting": "P450 3A2; 12 hours", "result": 0.14, "unit": "x-fold change"}, {"measurement": "Gene expression (x-fold change) of P450 3A2", "setting": "P450 3A2; 24 hours", "result": 1.2, "unit": "x-fold change"}, {"measurement": "Gene expression (x-fold change) of P450 3A2", "setting": "P450 3A2; 3 days", "result": 0.63, "unit": "x-fold change"}, {"measurement": "Gene expression (x-fold change) of P450 3A2", "setting": "P450 3A2; 7 days", "result": 0.50, "unit": "x-fold change"}, {"measurement": "Gene expression (x-fold change) of P450 3A2", "setting": "P450 3A2; 28 days", "result": 0.45, "unit": "x-fold change"}, {"measurement": "Gene expression (x-fold change) of SEQ ID NO: 4", "setting": "SEQ ID NO:4; 12 hours", "result": 2, "unit": "x-fold change"}, {"measurement": "Gene expression (x-fold change) of SEQ ID NO: 4", "setting": "SEQ ID NO:4; 24 hours", "result": 0.36, "unit": "x-fold change"}, {"measurement": "Gene expression (x-fold change) of SEQ ID NO: 4", "setting": "SEQ ID NO:4; 3 days", "result": 0.47, "unit": "x-fold change"}, {"measurement": "Gene expression (x-fold change) of SEQ ID NO: 4", "setting": "SEQ ID NO:4; 7 days", "result": 0.26, "unit": "x-fold change"}, {"measurement": "Gene expression (x-fold change) of SEQ ID NO: 4", "setting": "SEQ ID NO:4; 28 days", "result": 0.30, "unit": "x-fold change"}, {"measurement": "Gene expression (x-fold change) of P450 4A", "setting": "P450 4A; 12 hours", "result": 7.0, "unit": "x-fold change"}, {"measurement": "Gene expression (x-fold change) of P450 4A", "setting": "P450 4A; 24 hours", "result": 16.6, "unit": "x-fold change"}, {"measurement": "Gene expression (x-fold change) of P450 4A", "setting": "P450 4A; 3 days", "result": 1.4, "unit": "x-fold change"}, {"measurement": "Gene expression (x-fold change) of P450 4A", "setting": "P450 4A; 7 days", "result": 0.5, "unit": "x-fold change"}, {"measurement": "Gene expression (x-fold change) of P450 4A", "setting": "P450 4A; 28 days", "result": 1.3, "unit": "x-fold change"}, {"measurement": "Gene expression (x-fold change) of P450 LA-omega 4A3", "setting": "P450 LA-omega 4A3; 12 hours", "result": 14.8, "unit": "x-fold change"}, {"measurement": "Gene expression (x-fold change) of P450 LA-omega 4A3", "setting": "P450 LA-omega 4A3; 24 hours", "result": 26.6, "unit": "x-fold change"}, {"measurement": "Gene expression (x-fold change) of P450 LA-omega 4A3", "setting": "P450 LA-omega 4A3; 3 days", "result": 1.1, "unit": "x-fold change"}, {"measurement": "Gene expression (x-fold change) of P450 LA-omega 4A3", "setting": "P450 LA-omega 4A3; 7 days", "result": 0.5, "unit": "x-fold change"}, {"measurement": "Gene expression (x-fold change) of P450 LA-omega 4A3", "setting": "P450 LA-omega 4A3; 28 days", "result": 0.47, "unit": "x-fold change"}]}
